From patent US10682413B2, “Pharmaceutical forms of diazabicyclooctane derivatives and process for producing the same” (Fedora Pharmaceuticals Inc., priority 2017, dated 2020)

Test: Decomposition of Compound (I) in aqueous solutions
Format: physicochemical
Source text: The present application is directed to a pharmaceutical composition of Compound (I) suitable for parenteral administration. […] Applicant discovered a lyophilisate formulation comprising a sugar and Compound (I) to afford an amorphous lyophilisate suitable for intravenous administration.

NCCONC(=O)[C@@H]1CC[C@@H]2CN1C(=O)N2OS(=O)(=O)O [Compound (I), (2S, 5R)—N-(2-aminoethoxy)-7-oxo-6-(sulfooxy)-1,6-diazabicyclo[3.2.1]octane-2-carboxamide]
stability in aqueous solutions: undergoes decomposition and dimerization in aqueous solutions
